≈ marks a conversion by molar mass, not a printed value.

Among the test systems are Staphylococcus aureus; Pseudomonas aeruginosa 1; Staphylococcus aureus 5; Staphylococcus aureus 1; Staphylococcus aureus 4; Escherichia coli O157; Enterococcus faecium; Pseudomonas aeruginosa 5; Pseudomonas aeruginosa 2; Candida parapsilosis; Candida krusei; Candida krusei ATCC 6258; Candida albicans; Candida tropicalis; Escherichia coli D21; Saccharomyces cerevisiae; Staphylococcus capitis 1; Bacillus megaterium Bm11; Acinetobacter junii RT-4.

Assay in all cases: ≥ marks a high value that may be exact or a test limit, other limits are often not marked, values filed in µg/mL are converted to µM
The test system of assay [1] is Enterococcus faecalis ATCC 29212.
Assay [2] has as its system Enterobacter cloacae HNTCC 53001.
Assay [3] deals with Candida albicans ATCC 90028.
Assay [4] relates to Pseudomonas aeruginosa ATCC 27853.
Assay [5] concerns Proteus mirabilis ATCC 25933.
Assay [6] relates to Candida parapsilosis ATCC 22019.
For assay [7], the system named is Staphylococcus aureus ATCC 25923.
Assay [8] deals with Klebsiella pneumoniae KK3 9904.
In assay [9] the test system is Staphylococcus epidermidis RP62A.
Assay [10] concerns Escherichia coli ATCC 25922.
In assay [11] the test system is Candida tropicalis B51a/5.
Assay [12] deals with Pseudomonas aeruginosa ATCC 15442.
The subject of assay [13] is Escherichia coli ATCC 8739.
Assay [14] concerns Staphylococcus aureus ATCC 29213.
The test system of assay [15] is Enterococcus faecalis ATCC 12953.
In assay [16] the test system is Klebsiella pneumoniae ATCC 13885.
For assay [17], the system named is Salmonella enterica subsp. enterica serovar Typhimurium ATCC 14028.
For assay [18], the system named is Streptococcus pyogenes ATCC 19615.
The test system of assay [19] is Bacillus subtilis ATCC 6633.
The subject of assay [20] is Candida albicans ATCC 10231.
Assay [21] concerns Pseudomonas syringae pv. tabaci 1918NCPPB.
The subject of assay [22] is Yersinia pseudotuberculosis YPIII.
The subject of assay [23] is Schizosaccharomyces pombe.
The test system of assay [24] is Streptococcus pyogenes ATCC 21547.
Assay [25] relates to Staphylococcus aureus Cowan 1.
The test system of assay [26] is Pseudomonas aeruginosa ATCC 15692.
The test system of assay [27] is Acinetobacter baumannii ATCC 19606.
Assay [28] deals with Staphylococcus epidermidis ATCC 12228.

In general, MIC refers to the least concentration at which growth counts as inhibited. The low end stands for inhibition by little substance, the high end for a need for much substance. Regarding `CC[C@H](C)[C@H](NC(=O)[C@H](CC(C)C)NC(=O)[C@H](CCCN=C(N)N)NC(=O)[C@@H](NC(=O)[C@H](C)NC(=O)[C@H](CCCCN)NC(=O)[C@H](CO)NC(=O)[C@H](CC(C)C)NC(=O)[C@@H](N)CCC(=O)O)C(C)C)C(=O)N[C@@H](CCCCN)C(=O)O` [ELSKAVRLIK], the MIC in the assay on Staphylococcus aureus is 20 µM (≈ 23.1 µg/mL); against Pseudomonas aeruginosa 1 it was 20 µM (≈ 23.1 µg/mL); in the assay with Staphylococcus aureus 5 it was ≥ 40 µM; against Staphylococcus aureus 1, 10 µM (≈ 11.6 µg/mL); against Staphylococcus aureus 4 it was 14.1 µM (≈ 16.4 µg/mL); in the assay with Escherichia coli O157, 20 µM (≈ 23.1 µg/mL). Moreover, the minimum inhibitory concentration (MIC) in the assay with Enterococcus faecium stood at 10 µM (≈ 11.6 µg/mL); in the assay with Pseudomonas aeruginosa 5, 14.1 µM (≈ 16.4 µg/mL); with Pseudomonas aeruginosa 2 it was 10 µM (≈ 11.6 µg/mL).

As to `CC[C@H](C)[C@H](NC(=O)[C@@H]1CCCN1C(=O)[C@H](CC(C)C)NC(=O)[C@@H](N)Cc1ccccc1)C(=O)N[C@@H](CC(C)C)C(=O)N[C@@H](C)C(=O)N[C@@H](CO)C(=O)N[C@@H](CC(C)C)C(=O)N[C@@H](C)C(=O)N[C@@H](C)C(=O)N[C@@H](CCCCN)C(=O)N[C@@H](Cc1ccccc1)C(=O)NCC(=O)N1CCC[C@H]1C(=O)N[C@@H](CCCCN)C(=O)N[C@@H](CC(C)C)C(=O)N[C@@H](Cc1ccccc1)C(=O)N[C@@H](CO)C(=O)N[C@@H](CC(C)C)C(=O)N[C@H](C(=O)N[C@H](C(=O)N[C@@H](CCCCN)C(=O)N[C@@H](CCCCN)C(=O)N[C@@H](CO)C(=O)O)[C@@H](C)O)C(C)C` [FLPILASLAAKFGPKLFSLVTKKS], the MIC in assay [1] was 20 µM (≈ 51.5 µg/mL); in [2], ≥ 40 µM; in assay [3], 25 µM (≈ 64.4 µg/mL); in the assay with Candida parapsilosis it was ≥ 40 µM; in assay [4], 40 µM (≈ 103 µg/mL); in the assay with Candida krusei, ≥ 40 µM. Also, the MIC in assay [5] was ≥ 40 µM; with Candida krusei ATCC 6258, ≥ 40 µM; against Candida albicans it was 40 µM (≈ 103 µg/mL); in [6], ≥ 40 µM; in the assay on Candida tropicalis, 20 µM (≈ 51.5 µg/mL); in [7], 3 µM (≈ 7.73 µg/mL). Further, the minimum inhibitory concentration (MIC) in assay [8] is ≥ 40 µM; in assay [9], 5 µM (≈ 12.9 µg/mL); in assay [10], 50 µM (≈ 129 µg/mL); in [11], 10 µM (≈ 25.8 µg/mL).

Regarding `CC[C@H](C)[C@H](N)C(=O)N[C@@H](CCCCN)C(=O)N[C@@H](Cc1ccccc1)C(=O)N[C@@H](CCC(=O)O)C(=O)N1CCC[C@H]1C(=O)N1CCC[C@H]1C(=O)N[C@@H](CC(C)C)C(=O)N1CCC[C@H]1C(=O)N1CCC[C@H]1C(=O)N[C@@H](CCCCN)C(=O)N[C@@H](CCCCN)C(=O)N[C@@H](C)C(=O)N[C@@H](Cc1cnc[nH]1)C(N)=O` [IKFEPPLPPKKAH], the MIC was 21.3 µM (≈ 32 µg/mL) in [12]; ≥ 42.6 µM in [5]; 21.3 µM (≈ 32 µg/mL) in assay [13]; 42.6 µM (≈ 64 µg/mL) in assay [14]; ≥ 42.6 µM in [15]; 21.3 µM (≈ 32 µg/mL) in assay [16]. In addition, the values for the MIC in assay [17], in [18] and in [19] were 42.6 µM (≈ 64 µg/mL), ≥ 42.6 µM and ≥ 42.6 µM, respectively.

As to `CC[C@H](C)[C@H](NC(=O)[C@H](CCCN=C(N)N)NC(=O)CNC(=O)[C@H](CC(C)C)NC(=O)[C@H](Cc1ccccc1)NC(=O)[C@H](CCCCN)NC(=O)[C@H](CO)NC(=O)[C@H](Cc1ccccc1)NC(=O)[C@H](Cc1c[nH]c2ccccc12)NC(=O)[C@H](CCCN=C(N)N)NC(=O)[C@@H](NC(=O)[C@@H](N)Cc1ccccc1)C(C)C)C(=O)N[C@@H](CC(C)C)C(N)=O` [FVRWFSKFLGRIL], the MIC in [20] was 12 µM (≈ 20 µg/mL); in assay [1], 12 µM (≈ 20 µg/mL); in the assay with Escherichia coli D21 it was 12 µM (≈ 20 µg/mL); in [21] it was 6 µM (≈ 10 µg/mL); in assay [22], 3 µM (≈ 5 µg/mL); in [4], 24 µM (≈ 40 µg/mL). Also, the MIC stood at 24 µM (≈ 40 µg/mL) against Saccharomyces cerevisiae; 3 µM (≈ 5 µg/mL) against Staphylococcus capitis 1; 12 µM (≈ 20 µg/mL) in assay [23]; 3 µM (≈ 5 µg/mL) against Bacillus megaterium Bm11; 3 µM (≈ 5 µg/mL) in [24]; 6 µM (≈ 10 µg/mL) in assay [25]. Besides, the MIC in [7] amounted to 6 µM (≈ 10 µg/mL); in [26] it was 12 µM (≈ 20 µg/mL); in [27] it was 6 µM (≈ 10 µg/mL); in assay [10], 24 µM (≈ 40 µg/mL); in the assay with Acinetobacter junii RT-4, 3 µM (≈ 5 µg/mL); in assay [28] it was 3 µM (≈ 5 µg/mL).
